# Measured values published in US11091486B2, “Process for the preparation of pyrazolo[1,5-a]pyrimidines and salts thereof” (Array BioPharma Inc., priority 2016, dated 2021).
# Assays:
# Settings in all cases: 1 μM, predicted hepatic extraction ratio
# [1] = In vitro metabolic stability in rat liver microsomes (Example 34); type: in vitro ADME, Sprague Dawley rat
# Procedure: (§1) In vitro metabolic stabilities were studied at a concentration of 1 μM in the presence of liver microsomes and isolated hepatocytes.
# (§2) A 100 mM potassium phosphate assay buffer solution (KPB) was prepared as follows. Both KH2PO4 and K2HPO4 were dissolved separately in reagent grade water resulting in final concentrations 100 mM. A 75:25 mixture v/v of K2HPO4:KH2PO4 was prepared and the pH of the solution was adjusted to 7.4 using diluted HCl or diluted NaOH solutions. A stock solution of test compound was prepared at 10 mM (active compound) in DMSO. The stock solution was diluted immediately before use to 2.5 μM using the KPB solution to create the working standard. All test compounds were completely soluble in DMSO by visual inspection at room temperature. […]
# (§3) Data were acquired and peak areas were calculated for test compounds and the internal standard using Analyst 1.6.1 software (Sciex). […]
# (§4) All calculations were performed using BioAssay Enterprise. The mean peak area ratios were calculated by averaging the peak area ratios (n=2) of test compound and the internal standard for each sample. Percent remaining was calculated by determining the ratio of the peak area ratio at each time point to the peak area ratio of the time-zero samples. The rate of loss of test compound (km) was determined by linear regression of—1n(f(t)) versus time. […] The t½ was determined dividing 1n(2) by km. […]
# [2] = tested on: Cryopreserved human hepatocytes; assay: In vitro metabolic stability in human hepatocytes (Example 34); type: in vitro ADME
# Procedure: as §1
# A stock solution of the test compound was prepared at 10 mM (active compound) in DMSO. The in vitro stability of the test compound (1 μM) was assessed in the presence of hepatocytes as follows. Cryopreserved hepatocytes were thawed, isolated from shipping media and diluted to a density of 1×10^6 viable cells/mL, according to the supplier's guidelines, using Dulbecco's Modified Eagle Medium, 1×, high glucose (DMEM, Invitrogen, Carlsbad, Calif.). Viability was determined by trypan blue exclusion using a hemocytometer (3500 Hausser, VWR, West Chester, Pa.). […]
# as §3, §4
# [3] = In vitro metabolic stability in human liver microsomes (Example 34); type: in vitro ADME
# Procedure: as §1, §2, §3, §4
Structure (SMILES),Rat Microsome Clearance (% ER) [1],Human Hepatocyte Clearance (% ER) [2],Human Microsome Clearance (% ER) [3]
C[C@@H]1CCc2ncc(F)cc2[C@H]2CCCN2c2ccn3ncc(c3n2)C(=O)N1 [Formula I],51 % ER,48 % ER,79 % ER
C[C@H]1CCc2ncc(F)cc2[C@H]2CCCN2c2ccn3ncc(c3n2)C(=O)N1 [formula I′],77 % ER,74 % ER,92 % ER
